Read-outs that look alike come from different tables or passages of the source. Where a SMILES comes first, the peptide text is derived from it.
Biological target: enzyme de conversion de l'angiotensine (ECA) (Homo sapiens, UniProt P12821)
Test: biochemical
Protocol: Brièvement, cette méthode repose sur l'hydrolyse du substrat Hippuryl-L-Histidyl-L-Leucine (HHL) par l'ECA pour produire de l'acide hippurique (HA) et de l'Histydil-Leucine. Après incubation à 37°C pendant 30 minutes dans du tampon borate de sodium pH 8,3, la réaction est arrêtée par addition de HCI. La séparation du substrat HHL et du produit HA est réalisé par chromatographie liquide haute pression en phase inversée (RP-HPLC) sur une colonne C18 (Kinetex). L'élution se fait par un mélange d'eau (75% v/v) et d'acétonitrile (25% V/V).
La comparaison entre la concentration de HA produite pour chaque concentration d'échantillon avec celle obtenue sans addition de peptide permet la détermination de l'IC50.
A titre de témoin positif, le captopril est également testé en parallèle de l'hydrolysat, des fractions et des peptides. Le témoin négatif est le substrat HHL seul, sans ECA, dilué dans du tampon borate pH 8,3. L'échantillon est le peptide, la fraction ou l'hydrolysat total à tester.
Le pourcentage d'inhibition de l'ECA est calculé selon la formule suivante : Pourcentage d'inhibition ECA (%) = (ASCHA ([…])−ASCHA (Echantillon))/(ASCHA ([…])−ASCHA (HHL)) × 100 [formula]

[1] = substrate HHL 5 mM, 37°C, 30 minutes, sodium borate buffer pH 8,3, detection at 228 nm, read-out: IC50 (converted)

Sequence of enzyme de conversion de l'angiotensine (ECA) (P12821 30-1306): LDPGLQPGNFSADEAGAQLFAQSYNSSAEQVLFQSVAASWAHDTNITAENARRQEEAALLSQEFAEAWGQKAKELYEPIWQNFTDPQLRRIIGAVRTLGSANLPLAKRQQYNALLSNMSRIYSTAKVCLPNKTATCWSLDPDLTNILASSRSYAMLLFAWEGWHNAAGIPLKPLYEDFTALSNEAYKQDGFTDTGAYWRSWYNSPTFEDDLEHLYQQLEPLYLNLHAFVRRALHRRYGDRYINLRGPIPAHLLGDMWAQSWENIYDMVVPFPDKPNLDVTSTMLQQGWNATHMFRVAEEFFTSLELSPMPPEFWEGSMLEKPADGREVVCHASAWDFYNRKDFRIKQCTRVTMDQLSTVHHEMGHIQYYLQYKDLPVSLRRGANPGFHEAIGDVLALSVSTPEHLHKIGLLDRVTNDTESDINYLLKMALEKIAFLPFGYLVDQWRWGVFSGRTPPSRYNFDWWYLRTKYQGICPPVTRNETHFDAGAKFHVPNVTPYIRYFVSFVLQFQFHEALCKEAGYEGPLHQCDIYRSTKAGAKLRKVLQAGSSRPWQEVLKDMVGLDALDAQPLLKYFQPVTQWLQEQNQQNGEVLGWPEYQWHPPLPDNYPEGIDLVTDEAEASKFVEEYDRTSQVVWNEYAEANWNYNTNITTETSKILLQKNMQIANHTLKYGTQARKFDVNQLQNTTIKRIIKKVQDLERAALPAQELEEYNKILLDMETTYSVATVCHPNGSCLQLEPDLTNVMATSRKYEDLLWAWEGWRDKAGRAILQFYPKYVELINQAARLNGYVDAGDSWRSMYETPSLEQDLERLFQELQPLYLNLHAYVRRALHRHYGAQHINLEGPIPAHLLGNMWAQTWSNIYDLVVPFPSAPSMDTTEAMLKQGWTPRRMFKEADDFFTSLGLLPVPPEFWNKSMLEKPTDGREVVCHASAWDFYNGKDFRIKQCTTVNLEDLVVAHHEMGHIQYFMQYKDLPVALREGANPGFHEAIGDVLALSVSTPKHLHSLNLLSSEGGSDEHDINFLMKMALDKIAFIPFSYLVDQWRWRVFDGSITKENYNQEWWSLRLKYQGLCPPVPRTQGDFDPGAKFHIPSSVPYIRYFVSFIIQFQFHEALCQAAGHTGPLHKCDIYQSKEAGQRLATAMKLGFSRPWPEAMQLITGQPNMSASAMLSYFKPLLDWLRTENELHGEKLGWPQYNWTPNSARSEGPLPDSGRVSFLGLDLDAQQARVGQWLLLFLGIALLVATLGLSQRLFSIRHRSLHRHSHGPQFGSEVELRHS

IC50 [1] [µM] | SMILES | IC50 [µM]
 | N[C@@H](CO)C(=O)N[C@@H](Cc1ccccc1)C(=O)O [SF, Serine-Phénylalanine] | 516
1280 | N[C@@H](CC(=O)O)C(=O)N[C@@H](Cc1ccccc1)C(=O)O [DF, Acide Aspartique -Phénylalanine] (H-Asp-Phe-OH) | 
40.3 | CC(C)[C@H](N)C(=O)N[C@@H](Cc1ccc(O)cc1)C(=O)O [VY, Valine-Tyrosine] (H-Val-Tyr-OH) | 

— patent EP3171885B1, “PEPTIDE HYDROLYSATE OF SNAILS, PEPTIDE FRACTIONS, PRODUCTION METHOD, USE AND COMPOSITIONS FOR INHIBITING THE ANGIOTENSIN CONVERTING ENZYME” (Drevet, Pascal, priority 2014, dated 2016)
